Assay [1] deals with PDAC4 3D spheres. Kind of assay: Viability curves on PDAC4 3D spheres. It is filed as cell-based, human. The following applies: Homo sapiens, 30 h. An excerpt:
The PDAC patient-derived xenograft (PDX) Panc354 (referred to hereafter as PDAC3) was obtained from Dr. Manuel Hidalgo under a Material Transfer Agreement with the Spanish National Cancer Centre (CNIO), Madrid, Spain (Reference no. I409181220BSMH). PDAC1, PDAC2 and PDAC4 PDXs were established from primary patient resected tumors. Samples were provided by the BioBank Hospital Ramón y Cajal-IRYCIS (PT13/0010/0002), integrated in the Spanish National Biobanks Network and they were processed following standard operating procedures with the appropriate approval of the Ethical and Scientific Committees (Control no. No. Control: DE-BIOB-73 AC65, RG.BIOB-96 REV, and CI-BIOB-08-10-01 rev), with informed consent and according to Declaration of Helsinki principles. Primary patient tumors were subcutaneously implanted in immunocompromised female 6- to 8-week-old NU-Foxn1nu nude mice (Envigo, Barcelona, Spain) and subsequently passage in vivo to establish PDX PDAC1, PDAC2 and PDAC4. Primary PDX-derived in vitro cultures were established as previously detailed. […]
Pancreatic CSC spheres were generated as previously described in ultra-low attachment plates (Corning) using CSC media: serum-free DMEM/F12 medium (1:1; #21331-020; Gibco, Waltham, MA, USA), supplemented with Pen/Strep (1:100; #1500-063; Gibco, Waltham, MA, USA), Fungizone (1:250; #15290-018; Gibco), L-Glutamine (1:100; #25030-024; Gibco, Waltham, MA, USA), B-27 (1:50; #17504-044; Gibco, Waltham, MA, USA) and basic fibroblast growth factor (FGF-b) (1:5000; Gibco, Waltham, MA, USA). […] To quantify spheres of > 40 μm, 1 mL of sample volume was analyzed with a CASY® Cell Counter (Roche Applied Sciences, Mannheim, Germany). […]

Assay [2] concerns the target T1, FGFR3 (Homo sapiens, UniProt P22607).
T1 construct: purchased DiscoveRx KINOMEscan
Kind of assay: KINOMEscan. The class given is binding. The following applies: read-out: % Ctrl.

Assay [3] deals with T2, FLT3(D835Y) (Homo sapiens, UniProt P36888, D835Y).
T2 construct: purchased DiscoveRx KINOMEscan
In words: KINOMEscan. It is filed as binding. The settings on record: read-out: % Ctrl.

The target in assay [4] is T3, PIK3C2G (Homo sapiens, UniProt O75747).
T3 construct: purchased DiscoveRx KINOMEscan
Kind of assay: KINOMEscan. It is filed as binding. The settings on record: read-out: % Ctrl.

The target in assay [5] is T4, PIK3CA(H1047L) (Homo sapiens, UniProt P42336, H1047L).
T4 construct: purchased DiscoveRx KINOMEscan
In words: KINOMEscan. The class given is binding. The settings on record: read-out: % Ctrl.

The target of assay [6] is T5, KIT(D816H) (Homo sapiens, UniProt P10721, D816H).
T5 construct: purchased DiscoveRx KINOMEscan
Kind of assay: KINOMEscan. The class given is binding. The following applies: read-out: % Ctrl.

In assay [7] the target is T6, KIT(V559D,V654A) (Homo sapiens, UniProt P10721, V559D/V654A).
T6 construct: purchased DiscoveRx KINOMEscan
Kind of assay: KINOMEscan. It is filed as binding. The following applies: read-out: % Ctrl.

In assay [8] the target is T7, LATS1 (Homo sapiens, UniProt O95835).
T7 construct: purchased DiscoveRx KINOMEscan
Kind of assay: KINOMEscan. The settings on record: read-out: % Ctrl. It is filed as binding.

Assay [9] has as its target T8, CDK2 (Homo sapiens, UniProt P24941).
T8 construct: purchased DiscoveRx KINOMEscan
In words: KINOMEscan. The class given is binding. The following applies: read-out: % Ctrl.

Assay [10] deals with T9, LTK (Homo sapiens, UniProt P29376).
T9 construct: purchased DiscoveRx KINOMEscan
Kind of assay: KINOMEscan. It is filed as binding. The settings on record: read-out: % Ctrl.

Assay [11] deals with T10, RPS6KA4(KD2-C-t.) (Homo sapiens, UniProt O75676).
T10 construct: RPS6KA4(KD2-C-t.); purchased DiscoveRx KINOMEscan
Kind of assay: KINOMEscan. It is filed as binding. The following applies: read-out: % Ctrl.

Assay [12] deals with T11, MAP3K2 (Homo sapiens, UniProt Q9Y2U5).
T11 construct: purchased DiscoveRx KINOMEscan
Kind of assay: KINOMEscan. The class given is binding. The settings on record: read-out: % Ctrl.

The target in assay [13] is T12, MET(Y1235D) (Homo sapiens, UniProt P08581, Y1235D).
T12 construct: purchased DiscoveRx KINOMEscan
In words: KINOMEscan. It is filed as binding. The following applies: read-out: % Ctrl.

Assay [14] concerns the target T13, MLK2 (Homo sapiens, UniProt Q02779).
T13 construct: purchased DiscoveRx KINOMEscan
Kind of assay: KINOMEscan. The class given is binding. The settings on record: read-out: % Ctrl.

In assay [15] the target is T14, MRCKB (Homo sapiens, UniProt Q9Y5S2).
T14 construct: purchased DiscoveRx KINOMEscan
Kind of assay: KINOMEscan. The class given is binding. The settings on record: read-out: % Ctrl.

The target of assay [16] is T15, MST1R (Homo sapiens, UniProt Q04912).
T15 construct: purchased DiscoveRx KINOMEscan
In words: KINOMEscan. The class given is binding. The settings on record: read-out: % Ctrl.

The target in assay [17] is T16, MYO3B (Homo sapiens, UniProt Q8WXR4).
T16 construct: purchased DiscoveRx KINOMEscan
Kind of assay: KINOMEscan. It is filed as binding. The following applies: read-out: % Ctrl.

Assay [18] addresses T17, EPHB6 (Homo sapiens, UniProt O15197).
T17 construct: purchased DiscoveRx KINOMEscan
In words: KINOMEscan. The class given is binding. The settings on record: read-out: % Ctrl.

A word on the EC50: it is the concentration needed to bring the measured effect to its halfway point. A higher EC50 goes with weaker potency.

T7 sequence (O95835 whole entry): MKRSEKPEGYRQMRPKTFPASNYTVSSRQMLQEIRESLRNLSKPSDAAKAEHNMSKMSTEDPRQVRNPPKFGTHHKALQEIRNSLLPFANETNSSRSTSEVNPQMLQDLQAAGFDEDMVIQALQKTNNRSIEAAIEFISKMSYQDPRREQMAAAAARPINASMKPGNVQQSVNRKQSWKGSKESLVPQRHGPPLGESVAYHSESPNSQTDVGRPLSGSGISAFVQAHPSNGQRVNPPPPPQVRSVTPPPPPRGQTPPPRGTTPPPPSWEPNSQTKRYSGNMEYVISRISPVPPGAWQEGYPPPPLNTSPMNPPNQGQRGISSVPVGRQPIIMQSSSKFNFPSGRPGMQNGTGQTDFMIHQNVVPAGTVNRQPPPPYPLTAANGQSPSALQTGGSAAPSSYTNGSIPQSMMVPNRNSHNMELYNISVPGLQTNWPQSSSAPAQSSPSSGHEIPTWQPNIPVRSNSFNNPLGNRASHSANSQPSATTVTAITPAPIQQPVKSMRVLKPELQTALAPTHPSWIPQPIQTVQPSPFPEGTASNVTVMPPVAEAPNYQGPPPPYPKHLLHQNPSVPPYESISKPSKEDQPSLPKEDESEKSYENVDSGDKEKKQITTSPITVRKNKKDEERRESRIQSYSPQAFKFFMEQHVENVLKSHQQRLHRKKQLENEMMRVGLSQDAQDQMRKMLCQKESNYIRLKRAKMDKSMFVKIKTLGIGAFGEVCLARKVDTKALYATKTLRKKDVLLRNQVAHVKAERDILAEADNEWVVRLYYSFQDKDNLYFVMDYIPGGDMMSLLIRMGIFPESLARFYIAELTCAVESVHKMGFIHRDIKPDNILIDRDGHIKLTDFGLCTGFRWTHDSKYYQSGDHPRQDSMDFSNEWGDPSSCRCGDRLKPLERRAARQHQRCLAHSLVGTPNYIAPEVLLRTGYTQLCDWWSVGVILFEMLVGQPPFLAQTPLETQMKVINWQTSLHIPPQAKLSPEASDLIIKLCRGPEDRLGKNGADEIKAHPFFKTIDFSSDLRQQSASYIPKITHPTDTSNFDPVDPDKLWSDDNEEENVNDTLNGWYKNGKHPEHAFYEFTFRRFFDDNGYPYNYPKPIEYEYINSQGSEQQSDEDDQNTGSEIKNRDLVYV
T16 sequence (Q8WXR4 whole entry): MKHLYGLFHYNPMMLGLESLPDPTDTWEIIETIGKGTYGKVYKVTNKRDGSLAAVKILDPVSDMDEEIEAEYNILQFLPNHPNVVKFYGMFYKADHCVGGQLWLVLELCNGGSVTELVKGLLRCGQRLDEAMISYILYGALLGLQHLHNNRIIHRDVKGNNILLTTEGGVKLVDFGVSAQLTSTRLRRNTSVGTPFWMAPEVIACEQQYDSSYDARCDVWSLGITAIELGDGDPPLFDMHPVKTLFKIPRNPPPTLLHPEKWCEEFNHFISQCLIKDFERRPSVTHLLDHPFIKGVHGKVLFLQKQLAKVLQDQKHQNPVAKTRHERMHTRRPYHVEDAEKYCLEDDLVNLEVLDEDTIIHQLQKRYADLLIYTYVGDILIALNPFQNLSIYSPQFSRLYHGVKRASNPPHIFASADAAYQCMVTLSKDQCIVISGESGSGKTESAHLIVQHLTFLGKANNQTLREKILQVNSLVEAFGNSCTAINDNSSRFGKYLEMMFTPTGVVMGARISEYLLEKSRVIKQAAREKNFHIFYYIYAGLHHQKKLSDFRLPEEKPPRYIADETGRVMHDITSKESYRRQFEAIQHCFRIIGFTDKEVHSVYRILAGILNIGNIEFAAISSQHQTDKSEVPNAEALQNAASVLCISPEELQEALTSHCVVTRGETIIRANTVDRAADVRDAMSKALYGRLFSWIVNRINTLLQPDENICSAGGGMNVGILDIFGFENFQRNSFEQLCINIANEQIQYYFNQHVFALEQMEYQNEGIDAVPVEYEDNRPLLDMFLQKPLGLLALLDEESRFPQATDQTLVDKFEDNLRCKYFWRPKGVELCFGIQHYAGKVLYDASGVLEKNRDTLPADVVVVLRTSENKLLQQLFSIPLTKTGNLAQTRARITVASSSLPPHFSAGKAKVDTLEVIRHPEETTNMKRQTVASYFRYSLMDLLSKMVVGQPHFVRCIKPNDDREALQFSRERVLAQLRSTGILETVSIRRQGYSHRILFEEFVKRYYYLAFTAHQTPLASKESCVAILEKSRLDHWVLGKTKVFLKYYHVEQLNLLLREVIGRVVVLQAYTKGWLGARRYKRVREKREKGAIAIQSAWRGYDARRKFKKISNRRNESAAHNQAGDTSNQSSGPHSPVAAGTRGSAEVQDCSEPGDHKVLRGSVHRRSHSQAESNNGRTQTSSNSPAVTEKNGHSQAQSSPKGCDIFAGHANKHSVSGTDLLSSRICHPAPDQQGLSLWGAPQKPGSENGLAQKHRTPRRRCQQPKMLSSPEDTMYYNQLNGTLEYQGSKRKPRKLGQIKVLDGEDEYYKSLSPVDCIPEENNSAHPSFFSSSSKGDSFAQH
T6 sequence (P10721 26-976 V559D/V654A): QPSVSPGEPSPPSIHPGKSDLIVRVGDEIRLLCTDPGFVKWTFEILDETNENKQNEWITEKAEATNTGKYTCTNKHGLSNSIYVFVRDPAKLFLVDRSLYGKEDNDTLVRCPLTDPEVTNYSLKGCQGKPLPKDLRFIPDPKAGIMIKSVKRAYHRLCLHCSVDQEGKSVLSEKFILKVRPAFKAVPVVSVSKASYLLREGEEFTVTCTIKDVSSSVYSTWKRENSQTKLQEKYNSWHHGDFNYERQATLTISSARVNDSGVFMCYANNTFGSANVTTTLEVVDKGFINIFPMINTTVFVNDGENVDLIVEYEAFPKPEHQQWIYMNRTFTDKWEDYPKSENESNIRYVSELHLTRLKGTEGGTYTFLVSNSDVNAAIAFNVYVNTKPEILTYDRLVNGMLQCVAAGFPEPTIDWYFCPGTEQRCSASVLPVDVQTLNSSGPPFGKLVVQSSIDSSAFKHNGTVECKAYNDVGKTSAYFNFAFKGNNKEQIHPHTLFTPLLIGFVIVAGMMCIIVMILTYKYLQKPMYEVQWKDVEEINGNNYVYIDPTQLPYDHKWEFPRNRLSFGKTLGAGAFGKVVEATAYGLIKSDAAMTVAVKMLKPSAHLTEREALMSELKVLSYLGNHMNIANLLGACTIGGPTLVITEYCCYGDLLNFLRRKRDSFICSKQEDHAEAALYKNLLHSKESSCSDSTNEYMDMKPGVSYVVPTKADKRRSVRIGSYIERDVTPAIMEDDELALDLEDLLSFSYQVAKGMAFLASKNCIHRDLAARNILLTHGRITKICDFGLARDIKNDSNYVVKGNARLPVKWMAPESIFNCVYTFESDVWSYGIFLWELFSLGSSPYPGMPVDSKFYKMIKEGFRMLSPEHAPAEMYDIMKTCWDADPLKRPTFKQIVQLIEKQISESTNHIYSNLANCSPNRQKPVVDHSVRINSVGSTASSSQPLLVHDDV
T17 sequence (O15197 32-1021): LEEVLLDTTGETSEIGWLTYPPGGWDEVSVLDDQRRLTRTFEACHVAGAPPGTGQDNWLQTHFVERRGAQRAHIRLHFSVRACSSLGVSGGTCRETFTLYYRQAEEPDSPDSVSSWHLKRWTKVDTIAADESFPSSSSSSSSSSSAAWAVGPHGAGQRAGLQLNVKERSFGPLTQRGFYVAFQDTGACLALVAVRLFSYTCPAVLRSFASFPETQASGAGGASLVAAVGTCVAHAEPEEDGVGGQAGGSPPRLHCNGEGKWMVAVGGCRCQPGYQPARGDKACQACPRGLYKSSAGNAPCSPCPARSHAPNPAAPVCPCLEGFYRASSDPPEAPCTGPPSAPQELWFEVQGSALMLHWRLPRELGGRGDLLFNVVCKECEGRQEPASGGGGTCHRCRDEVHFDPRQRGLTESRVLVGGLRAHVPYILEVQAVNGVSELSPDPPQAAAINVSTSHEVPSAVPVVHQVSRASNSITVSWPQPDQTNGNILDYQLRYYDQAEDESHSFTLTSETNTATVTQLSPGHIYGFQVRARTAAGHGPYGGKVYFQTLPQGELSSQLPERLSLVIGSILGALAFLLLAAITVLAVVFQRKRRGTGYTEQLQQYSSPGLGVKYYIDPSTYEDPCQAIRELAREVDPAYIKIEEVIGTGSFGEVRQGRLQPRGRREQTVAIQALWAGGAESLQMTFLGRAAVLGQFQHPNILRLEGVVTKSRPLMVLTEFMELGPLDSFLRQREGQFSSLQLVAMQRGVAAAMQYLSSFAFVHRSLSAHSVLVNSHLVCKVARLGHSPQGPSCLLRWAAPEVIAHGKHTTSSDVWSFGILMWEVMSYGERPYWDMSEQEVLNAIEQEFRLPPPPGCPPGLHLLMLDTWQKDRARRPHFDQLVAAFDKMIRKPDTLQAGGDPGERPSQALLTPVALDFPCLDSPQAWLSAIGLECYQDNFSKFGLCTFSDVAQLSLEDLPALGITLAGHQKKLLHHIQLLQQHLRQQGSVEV
T10 sequence (O75676 372-772 limits assumed): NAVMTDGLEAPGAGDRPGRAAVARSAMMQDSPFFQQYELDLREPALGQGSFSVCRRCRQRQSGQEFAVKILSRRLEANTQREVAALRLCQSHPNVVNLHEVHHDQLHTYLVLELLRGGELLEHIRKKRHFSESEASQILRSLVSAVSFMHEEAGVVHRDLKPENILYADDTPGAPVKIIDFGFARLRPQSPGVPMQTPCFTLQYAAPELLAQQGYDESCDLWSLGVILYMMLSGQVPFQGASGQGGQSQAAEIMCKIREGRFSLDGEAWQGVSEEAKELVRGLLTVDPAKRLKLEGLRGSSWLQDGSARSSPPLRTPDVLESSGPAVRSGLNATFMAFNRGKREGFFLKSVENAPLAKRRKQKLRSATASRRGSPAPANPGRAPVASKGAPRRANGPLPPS
T5 sequence (P10721 26-976 D816H): as the sequence (P10721 26-976 V559D/V654A) above, with D534V, A629V, D791H counted along it

For `CN1CCC(CNc2ccc3ncc(C(=O)Nc4cccc(OC(F)(F)F)c4)n3n2)CC1` [Cpd 2], a half-maximal effect in [1] (EC50) was put at 7.17 µM. The remaining binding at 1 µM is 98% in assay [2]; 65% in [3]; 59% in assay [4]; 93% in assay [5]; 91% in assay [6]; 91% in assay [7]. Also, the remaining binding at 1 µM in assay [8] was 100%; in assay [9], 100%; in assay [10], 93%; in assay [11], 100%; in assay [12], 92%; in [13], 93%. Also, the remaining binding at 1 µM worked out at 100% in assay [14]; 100% in assay [15]; 100% in [16]; 100% in assay [17]; 92% in assay [18].
